Common to all, as to assay type: physicochemical
Data set [1] in a line: Drug degradation in DMSO.
The nature of data set [2]: Drug degradation in DMSO assessed as pyrimido[5,4-g]pteridine-4,6(3H,7H)-dione formation after 2 months. The note with it: 1461 h.
Data set [3] in a line: Drug degradation in DMSO assessed as bis-alloxazine and pyrimido[4,5-g]pteridine-2,4,7,9(1H,3H,6H,8H)-tetraone formation.
The nature of data set [4]: Drug degradation in DMSO assessed as oxidation after overnight incubation.
Data set [5] in a line: Drug degradation in DMSO assessed as pyrimido[5,4-g]pteridine-2,4,6,8-tetraamine formation by UV-Vis spectrophotometry.
Data set [6] is described as follows: Drug degradation in DMSO assessed as pyrimido[4,5-g]pteridine-2,4,7,9-tetraamine formation by UV-Vis spectrophotometry.
Data set [7] in a line: Drug degradation in DMSO assessed as oxidation.
Data set [8] in a line: Drug degradation in DMSO by UV-Vis spectrophotometry.
Data set [9] in a line: Drug degradation in DMSO by NMR spectrophotometry.
Data set [10] is described as follows: Drug degradation in DMSO after 2 months by UV-Vis spectrophotometry. To be noted: 1461 h.
The nature of data set [11]: Drug degradation in DMSO assessed as methoxy group hydrolysis by NMR spectrophotometry.
Data set [12] in a line: Drug degradation in DMSO assessed as bis-alloxazine and pyrimido[4,5-g]pteridine-2,4,7,9(1H,3H,6H,8H)-tetraone formation after 3 months. To be noted: 2191.5 h.
Data set [13] in a line: Drug degradation in DMSO assessed as ammonium cation formation by NMR spectroscopy.
The nature of data set [14]: Drug degradation in DMSO assessed as murexide by UV-Vis spectrophotometry.
Data set [15] is described as follows: Drug degradation in DMSO assessed as oxidation after two months. To be noted: 1461 h.
A short description of data set [16]: Drug degradation in DMSO assessed as 2,6-diamino-5-(2,6-diamino-4-oxopyrimidin-5(4H)-ylideneamino)pyrimidin-4(3H)-one formation at 10 mM incubated over 2 months by UV-Vis spectrophotometry. The note with it: 1461 h, 10000 µM.
A short description of data set [17]: Drug degradation in DMSO assessed as 2,6,8-triaminopyrimido[5,4-g]pteridin-4(3H)-one formation at 10 mM incubated over 2 months by UV-Vis spectrophotometry. The note with it: 1461 h, 10000 µM.
Data set [18] is described as follows: Drug degradation in DMSO after 7 days by NMR spectroscopy. To be noted: 168 h.
A short description of data set [19]: Drug degradation in DMSO assessed as 2,6-diamino-5-(2,6-diamino-4-oxopyrimidin-5(4H)-ylideneamino)pyrimidin-4(3H)-one formation after 1 day by NMR spectroscopy. To be noted: 24 h.
The nature of data set [20]: Drug degradation in DMSO assessed as ammonium cation formation after 2 days by NMR spectroscopy. To be noted: 48 h.
The nature of data set [21]: Drug degradation in DMSO assessed as 2,6,8-triaminopyrimido[5,4-g]pteridin-4(3H)-one after 87 days by NMR spectroscopy. To be noted: 2088 h.
A short description of data set [22]: Drug degradation in DMSO assessed as 2,6-diamino-5-(2,6-diamino-4-oxopyrimidin-5(4H)-ylideneamino)pyrimidin-4(3H)-one formation after 11 days by UV-Vis spectrophotometry. The note with it: 264 h.
A short description of data set [23]: Drug degradation in DMSO assessed as 2,6,8-triaminopyrimido[5,4-g]pteridin-4(3H)-one formation after 11 days by UV-Vis spectrophotometry. To be noted: 264 h.
Data set [24] can be described thus: Drug degradation in alkalised DMSO assessed as 2,6-diamino-5-(2,6-diamino-4-oxopyrimidin-5(4H)-ylideneamino)pyrimidin-4(3H)-one formation.
Data set [25] can be described thus: Drug degradation in alkalised DMSO assessed as 2,6,8-triaminopyrimido[5,4-g]pteridin-4(3H)-one formation after 24 hrs.
Data set [26] can be described thus: Drug degradation in acidified DMSO.
The nature of data set [27]: Drug degradation in DMSO assessed as 5-aminobarbiturate formation by UV-Vis spectrophotometry.

Drawing on ChEMBL document CHEMBL2150899, “Compound instability in dimethyl sulphoxide, case studies with 5-aminopyrimidines and the implications for compound storage and screening” (Bioorg Med Chem Lett, 2012), this text covers Drug degradation for 13 compounds.

As for `Nc1ncnc(O)c1N`, the Drug degradation result in [1] and in [2] was “Active” throughout.

As to `Nc1[nH]c(=O)[nH]c(=O)c1N`, the Drug degradation result in data set [1] and in data set [3] was “Active” in each case.

In the case of `Nc1nc(N)c(N)c(N)n1`, the Drug degradation entry in [1], in [4], in data set [5] and in data set [6] was “Active” in each case.

For `Nc1c(Cl)ncnc1Cl`, in data set [7], the Drug degradation result is on record as “Not Active”.

In the case of `Nc1cc(O)nc(N)n1`, in data set [1], the Drug degradation entry is recorded as “Not Active”.

Take `Nc1nc(Cl)c(N)c(Cl)n1`: the Drug degradation entry in data set [1], in data set [8], in data set [7] and in data set [9] was “Active” each time.

As to `Nc1ncnc(N)c1N`, the Drug degradation result in data set [8] and in data set [10] was “Not Active” in each case.

Take `COc1nc(N)nc(OC)c1N`: the Drug degradation entry in [1], in data set [7] and in data set [11] was “Active” throughout.

Regarding `Nc1c[nH]c(=O)nc1N`, the Drug degradation result in [1], in data set [7] and in data set [12] was “Active” each time.

Regarding `NC1C(=O)NC(=O)NC1=O`, the Drug degradation entry in [1], in data set [13] and in data set [14] was “Active” each time.

Take `Nc1nc(S)[nH]c(=O)c1N`: the Drug degradation entry in data set [1], in [13] and in data set [8] was “Active” in each case.

Regarding `Nc1nc(N)c(N)c(O)n1`, the Drug degradation entry in [1], in data set [4], in [15], in data set [16], in [17] and in [18] was “Active” throughout. The Drug degradation result in [19], in data set [20], in data set [21], in data set [22], in data set [23] and in data set [24] was “Active” each time. The Drug degradation entry in data set [25] and in data set [26] was “Active” each time.

For the compound `Nc1c[nH]c(=O)[nH]c1=O`, the Drug degradation result in data set [1], in data set [14] and in data set [27] was “Active” throughout.
